Patent US20090274655A1, “2-CARBOXY THIOPHENE DERIVATIVES AS ANTI VIRAL AGENTS” (priority 2006, published 2009)

Columns and labels:
[1] = tested on: sub-genomic HCV NS3-NS5B replicon of genotype 1a (subline 1.19) in Huh-7 cells; experiment: 1a luciferase replicon assay (replicon luciferase cell based assay); parameters: species or system HCV genotype 1a; details: Hepatitis C virus, genotype 1a replicon, firefly luciferase reporter, 48 hours
Protocol: (§1) Replicon Luciferase Cell Based Assay
(§2) A 40 mM stock solution in DMSO of each test compound was further diluted into 50 μL of DMSO in the first row of a 96 well, V-bottom microplate, to give 100 times the top concentration of the required dilution series. Aliquots of 25 μL of DMSO were added to each well of the remaining rows, and doubling dilutions of compound were prepared by the serial transfer of 25 μL volumes from the first row onwards. A PlateMate™ robot was used to transfer 1 μL volumes from each dilution well into duplicate wells of a clear bottom, black walled, 96 well assay plate (COSTAR #3603). Control wells received 1 μL of DMSO alone. […]
(§3) One tablet of Resazurin (Fisher #R/0040/79) was dissolved in 50 mL of phosphate buffered saline and 100 μL of solution added to all wells. The plate was re-incubated at 37° C. for a further 2-4 hours, wrapped in aluminium foil, before reading in a FLUOStar Optima at 595 nm. […] The plate was then read for luminescence on a TopCount® NXT™.
(§4) Potency: The luminescence values from all compound-free wells containing cells were averaged to obtain a positive control value. The mean luminescence value from the compound-free wells that had received no cells was used to provide the negative (background) control value. […] The quantifiable and specific reduction of luciferase signal in the presence of a drug is a direct measure of replicon inhibition. […]

[2] = tested on: sub-genomic HCV NS3-NS5B replicon of genotype 1b (ET subline) in Huh-7 cells; experiment: 1b luciferase replicon assay (replicon luciferase cell based assay); parameters: species or system HCV genotype 1b; details: Hepatitis C virus, Huh-7, 48 h, read-out: IC50 in the 1b luciferase replicon assay
Protocol: as §1, §2, §3, §4

CC(C)N(c1cc(-c2ccc(NC(=O)c3cscn3)cc2)sc1C(=O)O)C(=O)[C@H]1CC[C@H](C)CC1 [Example 1, 3-[[(trans-4-Methylcyclohexyl)carbonyl](1-methylethyl)amino]-5-{4-[(1,3-thiazol-4-ylcarbonyl)amino]phenyl}-2-thiophenecarboxylic acid]
IC50 [1]: < 100 nM | IC50 [2]: < 100 nM
